Data: patent US20130210755A1, “METHODS FOR INHIBITING INSECT INFESTATIONS” (ELI LILLY AND COMPANY, priority 2010, published 2013)

Columns and labels:
Type in all cases: in vivo
[1] = system: stable fly (Stomoxys calcitrans); experiment: Fecal bioassay: emergence of adult stable flies from manure of horses given oral spinosad feed-through
Procedure: (§1) A study was conducted to evaluate the efficiency of oral spinosad feed-through for controlling development of immature stages of the house fly (Musca domestica) and stable fly (Stomoxys calcitrans) in the manure of treated horses. There were five treatment groups, having three horses each. Treatment groups 1-4 were administered the following pellet formulation: […]
(§2) Treatment groups 1-4 were provided the test substance top-dressed onto feed supplement and fed at a rate to deliver a dose, respectively, of approximately 0.6, 0.8, 1.0, and 1.2 mg spinosad/kg body weight/day, daily for the duration of the study. Treatment group 5 was the negative control group and was fed the above formulation without spinosad, and each horse in this treatment group received one ounce (28.3 g) of the negative control substance.
(§3) Fecal samples from the three horses in each treatment group were collected on study days—1, 3, 10, and 17, and bioassayed with eggs of house flies and stable flies, and the number of adult flies that emerged from the fecal sample bioassays were determined. The concentration of spinosyn A in the fecal samples was also determined.
(§4) Another study was carried out, similar to the above study, with a few changes. There were three spinosad administered groups, with the rates of spinosad being 0.4, 0.5, and 0.6 mg spinosad/kg of body weight. There was a positive control group, administered between 0.6 and 0.7 mg cyromazine/kg of body weight. There was also a negative control group.

[2] = system: horn flies (Haematobia irritans); experiment: Orally administered spinosad to control horn flies on cattle; conditions: flies remaining after 24 hours exposure
Procedure: A study was conducted to evaluate the efficacy of orally administered spinosad to control horn flies (Haematobia irritans), an obligate ectoparasite of cattle. A liquid spinosad formulation was topically applied to a palatable feed ration and fed to cattle at doses of 0.03, 0.10, 0.30 and 3.0 mg/kg of body weight. The number of horn flies remaining after 24 hours exposure to the cattle in an enclosed room was determined on test days 2, 4, 9, 11, 16, 18, 23 and 25 and was compared to the number remaining for the control group. The percent reduction in horn flies was notable for the 0.30 and 3.0 mg/kg test groups.

[3] = system: house fly (Musca domestica); experiment: Fecal bioassay: emergence of adult house flies from manure of horses given oral spinosad feed-through
Procedure: as §1, §2, §3
Another study was carried out, similar to the above study, with a few changes. There were three spinosad administered groups, with the rates of spinosad being 0.4, 0.5, and 0.6 mg spinosad/kg of body weight. […]

[4] = Observed adverse effects in horses under feed-through administration
Procedure: as §1, §2, §4

[5] = Concentration of spinosyn A in fecal samples of treated horses
Procedure: as §2, §3, §4

Compound | Reduction of the emergence of stable flies ([1]; second study, horses, 0.6-0.7 mg cyromazine/kg) [%] | reduction in stable fly emergence ([1]; first study, 0.6 mg spinosad/kg of body weight group, study day 17 fecal sample collection) [%] | Reduction in emergence of stable fly adults ([1]; first study, horses, all 4 spinosad treatments (0.6-1.2 mg/kg/day) at all three post-administration collections, with one exception) [%] | reduction in stable fly emergence ([1]; second study, 0.4 mg spinosad/kg of body weight group, study day 10 fecal sample collection) [%] | Reduction of the emergence of stable flies ([1]; second study, horses, all three spinosad groups (0.4, 0.5, 0.6 mg/kg), with one exception) [%] | percent reduction in horn flies vs control group ([2]; oral 0.30 mg/kg in feed, from day 9 and on) | percent reduction in horn flies vs control group ([2]; oral 3.0 mg/kg in feed, all time points (days 2-25)) | effective in preventing emergence of adult house flies ([3]; first study, all 4 groups (0.6, 0.8, 1.0, 1.2 mg spinosad/kg body weight/day), all three post-administration collection days (3, 10, 17)) [%] | efficacy in preventing emergence of adult house flies ([3]; second study, all three spinosad groups (0.4, 0.5, 0.6 mg/kg), all three fecal sample collection dates) [%] | adverse effects ([4]; first study, horses, 0.6-1.2 mg spinosad/kg body weight/day, daily for the study) | adverse effects ([4]; second study, horses, 0.4, 0.5, 0.6 mg spinosad/kg) | mean spinosyn A concentration in fecal samples ([5]; first study, 0.6 mg spinosad/kg of body weight group, all three animals) [ppm] | mean spinosyn A concentration in fecal samples ([5]; first study, 0.8 mg spinosad/kg of body weight group, all three animals) [ppm] | mean spinosyn A concentration in fecal samples ([5]; first study, 1.2 mg spinosad/kg of body weight group) [ppm] | concentration of spinosyn A in fecal samples (lowest single sample) ([5]; first study, one horse, 0.6 mg spinosad/kg group, study day 3) [ppm] | concentration of spinosyn A in fecal samples (highest single sample) ([5]; first study, one horse, 1.2 mg spinosad/kg group, study day 10) [ppm] | mean spinosyn A concentration in fecal samples ([5]; second study, 0.4 mg spinosad/kg group, all three animals, all three post-administration dates) [ppm] | mean spinosyn A concentration in fecal samples ([5]; second study, 0.5 mg spinosad/kg group, all three animals, all three post-administration dates) [ppm] | mean spinosyn A concentration in fecal samples ([5]; second study, 0.6 mg spinosad/kg group, all three animals, all three post-administration dates) [ppm]
Nc1nc(N)nc(NC2CC2)n1 [cyromazine] | 100 | – | – | – | – | – | – | – | – | – | – | – | – | – | – | – | – | – | –
spinosad | – | 97.25 | 100 | 99.3 | 100 | at least 63.3% | at least 89.2% | 100 | 100 | no observed adverse effects | no observed adverse effects | 3.4 | 2.9 | 5.5 | 0.9 | 8.6 | 2.2 | 3.2 | 3.7
